pIC50: −log10 of the molar value.
How the values were obtained:
[1] = test system: HeLa cells expressing inducible IgM; assay: Apoptosis (caspase 3 cleavage immunoblot) in HeLa cells expressing inducible IgM; type: cell-based; conditions: 1 μM, 24 h
Description: In A, HeLa cells expressing inducible IgM (heavy and light chain) were treated with mifepristone to induce IgM expression over a period of 2 weeks. Afterwards, cells were treated with 1 μM crizotinib for 24 h followed by lysis and immunoblotting for caspase 3. […] Cleavage of caspase 3 is indicative of apoptosis induction. + and − indicate cells with or without mifepristone treatment, respectively. B, Concentration-response curves for the effect of crizotinib treatment (24 h) on the viability of three different myeloma cell lines. Results are the means of three independent experiments. C, Expression levels of LTK and ALK mRNA in the indicated myeloma cell lines determined by qPCR.
HeLa cells were cultured in DMEM (GIBCO) supplemented with 10% FCS and 1% Penicillin/Streptomycin (GIBCO). For overexpression of plasmids, cells were transfected using either Fugene 6 or with TransIT-LT1 (Mirus). For knockdown experiments, cells were reverse transfected with 10 nM siRNA (final concentration) using HiPerfect (Qiagen) according to the manufacturer's instructions.
Cells were washed twice with PBS and collected in lysis buffer (50 mM Tris-HCl, pH7.4; 1 mM EDTA, 100 mM NaCl, 0.1% SDS and 1% NP-40) supplemented with proteinase and phosphatase inhibitor (Pierce Protease and Phosphatase Inhibitor Mini Tablets, EDTA-free). […]

HeLa cells = assay: ER-to-Golgi trafficking in HeLa cells (ERES staining, mannosidase-II RUSH reporter); type: cell-based; conditions: RUSH reporter 20 min after biotin
Description: In A, HeLa cells expressing flag-tagged LTK were treated with 1 μM of crizotinib or ceritinib for 30 minutes. Afterwards, cells were lysed and immunoblotted against phosphorylated LTK, which is used as a surrogate for the active form of LTK. […] B, HeLa cells were treated with 1 μM ceritinib for 30 minutes followed by fixation and staining for Sec31A to label ERES. Cells were imaged by confocal microscopy and ERES were counted using ImageJ. C, HeLa cells stably expressing mCherry-tagged mannosidase-II RUSH reporter. Cells were treated with biotin to release the reporter from the ER. After 20 min, a time point where most of the reporter has reached the Golgi, cells were fixed and immunostained for GM130 to label the Golgi apparatus. […] D, IgA secreting AMO-1 cells were treated for 3 h with the indicated doses of crizotinib and the amount of IgA in cell supernatant was determined by ELISA.

[2] = test system: human L363-BTZ (bortezomib-resistant) myeloma cells; assay: Intrafemoral L363-BTZ luciferase xenograft in NSG mice; type: in vivo; conditions: 7 days treatment from day 10; crizotinib 50 mg/kg orally daily; bortezomib 1 mg/kg i.v. twice
Description: In this figure, immunocompromised NSG mice were intrafemorally injected with human L363-BTZ (bortezomib-resistant) myeloma cells. The cells were equipped with luciferase for in vivo monitoring of disease progression. After 10 days, mice were treated with bortezomib i.v. twice over a 7 day period and with crizotinib orally every day over the 7 day period. The images on the left show examples of tumour load in the different groups at days 4 and 7 of treatment (days 14 and 17 post tumour inoculation), and the graph on the right depicts the average luciferase signal for each mouse in each cohort (n=4) normalised to day 0 of the treatment (day 10 post tumour inoculation). Statistical significance between the groups was assessed with two-way ANOVA and between the time-points using one-way ANOVA with Tukey post-test.
NSG (NOD-scid IL2Rgamma^null) mice were obtained from The Jackson Laboratory (No. 005557, CA, USA) and kept in isolated ventilated cages with food ad libitum. Age matched (6-8 weeks old) mice were injected with 0.5×10^5 L363-BTZ_Luc+_TdTomato+ multiple myeloma cells (equipped with luciferase vector for monitoring, obtained from Addgene: #72486) into the right femur. Tumour growth was monitored twice over the week following luciferin injection (150 mg/kg, obtained from BioVision, CA, USA). […]

[3] = test system: B-cell blasts (plasma blasts/cells); assay: Viability of in vitro-generated B-cell blasts (plasma blasts/cells), CellTiterGlo 72 h; type: cell-based; conditions: Homo sapiens, day 3 B-cell blasts from 5 donors
Description: CD19^+ B-cells from 5 blood bank donors were stimulated by adherent murine L cells expressing CD40L, BAFF and April for 3 days to make B-cell blasts (plasma blasts/cells). plasma blasts/cells were tested for sensitivity to crizotinib for 72 h (CellTiterGlo).
CD19^+ B-cells from 5 blood bank donors were stimulated by adherent murine L cells expressing CD40L, BAFF and April for 3 days to make B-cell blasts (plasma blasts/cells). Washed plasma blasts/cells were detached and plated into 384 well format (10,000 cells/well) and tested against crizotinib at 6 concentrations in 10-fold dilutions covering a 10^−3-10 μM concentration range. Cell viability was determined after 72 h using the CellTiterGlo. Relative percentage cell viability was calculated by normalising luminescence units for each well to negative controls (DMSO 0.1%) and positive control wells (100 μM BzCl) and curve-fitting conducted to obtain the IC50.

plasma cells = assay: Viability of in vitro-generated IRF4/BLIMP1 double positive end stage plasma cells; type: cell-based; conditions: Homo sapiens, B-cell, 120 h; B-cells stimulated 5 days, inhibitor day 5-7
Source text: Negatively selected normal B-cells from blood bank donors were stimulated with sCD40L, IL-21, IL-4 for 5 days. This protocol allows generation of 10-20% end differentiated plasma cells that express IRF4 and BLIMP1. From day 5-7, cells were exposed to titred crizotinib in A, or ceritinib in B.
In A and B, IRF4 vs BLIMP1 in gated CD19^+ B cells is shown. IRF4 and BLIMP1 double positive cells represent end stage plasma cells. Such plasma cells are gated (blue elliptic region) and percent plasma cells are shown. The conditions without inhibitor (0) and with linear Alk-inhibitor (crizotinib, A; ceritinib, B) are shown for concentrations 0.01 μM, 0.1 μM, 1 μM, 10 μM and 100 μM.

LTK = target: T1, LTK (Homo sapiens, UniProt P29376); conditions: Centonze et al.; cited from earlier work
T1 construct: expressed in transfected cells; host or cells: HeLa cells
T1 sequence (P29376 17-864): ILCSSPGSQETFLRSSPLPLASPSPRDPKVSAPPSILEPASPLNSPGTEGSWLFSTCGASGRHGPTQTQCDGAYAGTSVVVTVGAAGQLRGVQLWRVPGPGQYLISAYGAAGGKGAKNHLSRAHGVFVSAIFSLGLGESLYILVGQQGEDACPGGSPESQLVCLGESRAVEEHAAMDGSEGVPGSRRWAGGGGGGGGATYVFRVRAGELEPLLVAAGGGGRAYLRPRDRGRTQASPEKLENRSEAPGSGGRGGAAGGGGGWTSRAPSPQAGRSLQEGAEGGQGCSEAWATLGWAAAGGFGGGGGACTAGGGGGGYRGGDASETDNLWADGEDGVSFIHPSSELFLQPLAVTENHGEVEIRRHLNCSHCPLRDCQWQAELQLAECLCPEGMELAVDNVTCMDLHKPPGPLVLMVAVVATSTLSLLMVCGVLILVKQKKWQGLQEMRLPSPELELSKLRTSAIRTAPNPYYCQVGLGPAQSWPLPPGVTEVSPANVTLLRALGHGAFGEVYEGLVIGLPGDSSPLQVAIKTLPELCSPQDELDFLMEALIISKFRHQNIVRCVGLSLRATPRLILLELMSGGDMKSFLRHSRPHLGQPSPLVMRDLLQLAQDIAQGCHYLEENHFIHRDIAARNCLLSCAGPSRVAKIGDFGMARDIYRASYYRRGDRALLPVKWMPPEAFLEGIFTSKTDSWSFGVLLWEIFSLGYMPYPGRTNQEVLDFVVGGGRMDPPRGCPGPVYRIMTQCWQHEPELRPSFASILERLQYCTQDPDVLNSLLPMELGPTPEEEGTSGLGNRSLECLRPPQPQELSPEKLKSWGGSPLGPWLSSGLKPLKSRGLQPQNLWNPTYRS

C[C@@H](Oc1cc(-c2cnn(C3CCNCC3)c2)cnc1N)c1c(Cl)ccc(F)c1Cl [crizotinib, 3-[(1R)-1-(2,6-dichloro-3-fluorophenyl)ethoxy]-5-(1-piperidin-4-ylpyrazol-4-yl)pyridin-2-amine]
apoptosis (caspase 3 cleavage) ([1]; HeLa cells with chronic increase of secretory burden (IgM 2 weeks)): marked increase in apoptosis
apoptotic response (caspase 3 cleavage) ([1]; non-secretory HeLa cells): did not show any apoptotic response
ER-to-Golgi trafficking (HeLa cells): less of the reporter in the Golgi region
tumour burden (luciferase signal) [2]: reduction in tumour burden
pIC50 [3]: 5.82 to 6.00
pIC50 (plasma cells): 6.10
inhibition of LTK (previously shown) (LTK): previously been shown to inhibit LTK

— patent publication US12465607B2, “ALK inhibitors for treatment of ALK-negative cancer and plasma cell-mediated diseases” (UNIVERSITETET I OSLO, priority 2019, dated 2025)
